In ChEMBL document CHEMBL5528054, “Novel Cocrystal Structures of Peptide Antagonists Bound to the Human Melanocortin Receptor 4 Unveil Unexplored Grounds for Structure-Based Drug Design” (J Med Chem, 2024) one finds Tm data, which are given here for one molecule.

The experiment addresses Melanocortin receptor 4 (Homo sapiens, UniProt P32245). Particulars: HEK293, filed as antagonist, time 1.0 hrs.

Chain of Melanocortin receptor 4 (P32245 whole entry): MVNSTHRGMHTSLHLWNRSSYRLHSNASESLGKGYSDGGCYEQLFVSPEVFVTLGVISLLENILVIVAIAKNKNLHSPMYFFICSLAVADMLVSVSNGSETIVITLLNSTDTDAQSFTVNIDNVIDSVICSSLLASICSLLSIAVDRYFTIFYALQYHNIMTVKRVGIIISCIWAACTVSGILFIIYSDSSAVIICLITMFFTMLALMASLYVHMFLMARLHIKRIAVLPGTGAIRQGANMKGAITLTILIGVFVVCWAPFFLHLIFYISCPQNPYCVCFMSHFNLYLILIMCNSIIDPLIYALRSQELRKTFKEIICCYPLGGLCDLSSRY

As for `CCCC[C@H](NC(C)=O)C(=O)N[C@H]1CC(=O)NCCCC[C@@H](C(N)=O)NC(=O)[C@@H](Cc2ccccc2)NC(=O)[C@H](CCCN=C(N)N)NC(=O)[C@@H](Cc2ccc3ccccc3c2)NC(=O)[C@@H]2CCCN2C1=O`, the Tm turned out to be 62.6 °C.
